Reference: paper PMC7287031 (Pharmacology Research & Perspectives, 2020)

Assays:
[1] = Human ADME study: mass balance, excretion of radioactivity in urine and feces; type: in vivo; conditions: for radioactive dose excreted in urine: N=6, after 504 hours, mean; for Cumulative excretion of radioactivity, Total (urine and feces, mean) / Cumulative excretion of radioactivity, Urine (mean): single oral dose 600 mg, healthy male volunteers, n=6
Description: This single‐center, open‐label, single oral dose study enrolled six healthy, non‐smoking, male Caucasian volunteers who were determined as being in good health according to their medical history, physical examination, vital signs, electrocardiogram, laboratory tests, and urinalysis. Healthy male volunteers were selected as the foundation of the extensive human ADME data should be based on a small cohort (6) of young healthy male volunteers with subsequent extension/bridging to actual patients as needed for the investigation of variables such as age, gender, ethnicity, and health on the metabolic profile. Subjects with relevant radiation exposure of > 0.2 mSv in the 12 months prior to the initiation of the study were excluded. […] The study protocol and dosimetry calculations were reviewed by the Independent Ethics Committee for the center, and written informed consent was obtained from all subjects before entering the study.
Subjects continued to fast for 4 hours after drug administration.
Radioactivity contents in urine and feces homogenates were determined at the bioanalytical laboratory of PRA International, Zuidlaren, the Netherlands. For urine, duplicate (1000 µL) aliquots were placed into 7‐mL glass vials (Perkin Elmer), after which 5 mL of scintillation cocktail (Ultima Gold™, Perkin Elmer) was added. After vortex mixing for 5 seconds, each sample was placed in a Tri‐Carb™ 3100 TR liquid scintillation analyzer (Perkin Elmer, Waltham, MA, USA) 30 minutes before counting. The total [^14C]‐radioactivity of the samples was determined by counting until a statistical error (two standard deviations) of 0.5% was obtained with a counting time of 10 or 30 minutes, depending on the level of radioactivity.
For feces homogenates, quadruplicate, accurately weighed (500 mg) aliquots were dried in a stove at 50 °C for 3 hours. […] The absorber agent for CO2 was 7‐mL Carbo‐Sorb® E (Perkin Elmer). At the end of the combustion cycle, the absorber was mixed with 13 mL of the scintillant Permafluor® E (Perkin Elmer). The samples were placed in the liquid scintillation analyzer for 60 minutes before counting. The total [^14C]‐radioactivity of the samples was determined by counting until a statistical error (2 s) of 0.5% was obtained with a counting time of 10 or 30 minutes, depending on the level of radioactivity.

CYP1A2 = biological target: T1, CYP1A2 (Homo sapiens, UniProt P05177); assay: Enzyme kinetics with recombinant CYP1A2 and scaling to HLM; type: in vitro ADME
T1 construct: purchased BD Biosciences
T1 sequence (P05177 1-516): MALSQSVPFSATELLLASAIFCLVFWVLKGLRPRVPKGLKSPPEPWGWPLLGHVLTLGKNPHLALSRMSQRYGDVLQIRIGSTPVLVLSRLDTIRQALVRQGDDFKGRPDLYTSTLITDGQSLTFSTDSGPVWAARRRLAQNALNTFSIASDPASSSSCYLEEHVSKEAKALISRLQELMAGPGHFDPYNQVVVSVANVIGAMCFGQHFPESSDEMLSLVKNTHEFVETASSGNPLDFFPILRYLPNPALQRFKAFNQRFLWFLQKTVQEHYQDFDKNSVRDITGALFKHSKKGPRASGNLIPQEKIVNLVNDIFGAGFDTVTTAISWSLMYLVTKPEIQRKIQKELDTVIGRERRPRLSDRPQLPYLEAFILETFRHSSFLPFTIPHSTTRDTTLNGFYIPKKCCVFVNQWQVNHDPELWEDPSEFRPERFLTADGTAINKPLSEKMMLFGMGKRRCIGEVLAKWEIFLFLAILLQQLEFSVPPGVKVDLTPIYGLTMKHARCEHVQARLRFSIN
Description: In vitro incubations were carried out in 100‐mM potassium phosphate buffer (pH 7.4) and 5‐mM MgCl2 with a total volume of 200 µL. Substrate and either human liver microsomes (HLM, BD Biosciences, mixed gender pool of n = 50) or recombinant human enzymes (BD Biosciences) were added and pre‐incubated for 3 minutes at 37°C. The reaction was started by addition of a fresh solution of NADPH (1 mmol/L final concentration). The samples were incubated at 37°C with agitation of 500 rpm. For incubations with CYP2A6, CYP2C9, CYP2C18, and CYP4A11, the phosphate buffer was replaced by TRIS buffer (100 mmol/L, pH 7.4) and for flavin‐containing monooxygenases (FMOs), a glycine buffer (50 mM, pH 9.5) was used.
The enzymatic reaction was stopped and the protein was precipitated by addition of an equal volume of methanol. After 30 min at −80°C, the samples were centrifuged at 30'000 x g for 15 min. The supernatant was withdrawn. Aliquots were analyzed by LSC and the supernatant was diluted with water to obtain a final solution containing less than 20% of the organic solvent. For samples of low substrate concentration, supernatants were evaporated to dryness under nitrogen, then re‐suspended in water containing less than 20% of methanol. Samples were analyzed by HPLC combined with radiodetection. […]

CN(C)C(=O)c1cc2cnc(Nc3ccc(N4CCNCC4)cn3)nc2n1C1CCCC1 [ribociclib, Ribociclib]
radioactive dose excreted in urine ([1]; human, single oral 600 mg [14C]-ribociclib): 22.6% | radioactive dose excreted in urine ([1]; human, single oral 600 mg [14C]-ribociclib, listed as [^14C]‐ribociclib): 22.6 ± 5.39% | mass balance (total recovery of radioactivity) ([1]; human, single oral 600 mg [14C]-ribociclib, N=6, mean): 91.7 ± 1.01% | Oral absorption (estimate) ([1]; human, radioactivity in urine plus radiolabeled metabolites in feces, assuming all formed systemically): approximately 58.8% | Cumulative excretion of radioactivity, Total (urine and feces, mean) ([1]; time 0 h): 0 % of dose | Cumulative excretion of radioactivity, Urine (mean) ([1]; time 0 h): 0 % of dose | Cumulative excretion of radioactivity, Urine (mean) ([1]; time 6 h): 4.85 % of dose | Cumulative excretion of radioactivity, Urine (mean) ([1]; time 12 h): 9.15 % of dose | Cumulative excretion of radioactivity, Total (urine and feces, mean) ([1]; time 24 h): 17.2 % of dose | Cumulative excretion of radioactivity, Urine (mean) ([1]; time 24 h): 12.9 % of dose | Cumulative excretion of radioactivity, Total (urine and feces, mean) ([1]; time 48 h): 47.5 % of dose | Cumulative excretion of radioactivity, Urine (mean) ([1]; time 48 h): 17.0 % of dose | Cumulative excretion of radioactivity, Total (urine and feces, mean) ([1]; time 72 h): 63.9 % of dose | Cumulative excretion of radioactivity, Urine (mean) ([1]; time 72 h): 19.0 % of dose | Cumulative excretion of radioactivity, Total (urine and feces, mean) ([1]; time 96 h): 75.9 % of dose | Cumulative excretion of radioactivity, Urine (mean) ([1]; time 96 h): 20.2 % of dose | Cumulative excretion of radioactivity, Total (urine and feces, mean) ([1]; time 120 h): 79.7 % of dose | Cumulative excretion of radioactivity, Urine (mean) ([1]; time 120 h): 20.9 % of dose | Cumulative excretion of radioactivity, Total (urine and feces, mean) ([1]; time 144 h): 83.8 % of dose | Cumulative excretion of radioactivity, Urine (mean) ([1]; time 144 h): 21.4 % of dose | Cumulative excretion of radioactivity, Total (urine and feces, mean) ([1]; time 168 h): 86.7 % of dose | Cumulative excretion of radioactivity, Urine (mean) ([1]; time 168 h): 21.8 % of dose | Cumulative excretion of radioactivity, Total (urine and feces, mean) ([1]; time 216 h): 88.6 % of dose | Cumulative excretion of radioactivity, Urine (mean) ([1]; time 216 h): 22.2 % of dose | Cumulative excretion of radioactivity, Total (urine and feces, mean) ([1]; time 240 h): 89.1 % of dose | Cumulative excretion of radioactivity, Urine (mean) ([1]; time 240 h): 22.3 % of dose | Cumulative excretion of radioactivity, Total (urine and feces, mean) ([1]; time 264 h): 89.6 % of dose | Cumulative excretion of radioactivity, Urine (mean) ([1]; time 264 h): 22.5 % of dose | Cumulative excretion of radioactivity, Total (urine and feces, mean) ([1]; time 288 h): 90.3 % of dose | Cumulative excretion of radioactivity, Urine (mean) ([1]; time 288 h): 22.5 % of dose | Cumulative excretion of radioactivity, Total (urine and feces, mean) ([1]; time 336 h): 90.9 % of dose | Cumulative excretion of radioactivity, Urine (mean) ([1]; time 336 h): 22.6 % of dose | Cumulative excretion of radioactivity, Total (urine and feces, mean) ([1]; time 360 h): 91.1 % of dose | Cumulative excretion of radioactivity, Urine (mean) ([1]; time 360 h): 22.6 % of dose | Cumulative excretion of radioactivity, Total (urine and feces, mean) ([1]; time 384 h): 91.3 % of dose | Cumulative excretion of radioactivity, Urine (mean) ([1]; time 384 h): 22.6 % of dose | Cumulative excretion of radioactivity, Total (urine and feces, mean) ([1]; time 408 h): 91.4 % of dose | Cumulative excretion of radioactivity, Urine (mean) ([1]; time 408 h): 22.6 % of dose | Cumulative excretion of radioactivity, Total (urine and feces, mean) ([1]; time 432 h): 91.6 % of dose | Cumulative excretion of radioactivity, Urine (mean) ([1]; time 432 h): 22.6 % of dose | Cumulative excretion of radioactivity, Total (urine and feces, mean) ([1]; time 456 h): 91.6 % of dose | Cumulative excretion of radioactivity, Urine (mean) ([1]; time 456 h): 22.6 % of dose | Cumulative excretion of radioactivity, Total (urine and feces, mean) ([1]; time 480 h): 91.7 % of dose | Cumulative excretion of radioactivity, Urine (mean) ([1]; time 480 h): 22.6 % of dose | Cumulative excretion of radioactivity, Total (urine and feces, mean) ([1]; time 504 h): 91.7 % of dose | Cumulative excretion of radioactivity, Urine (mean) ([1]; time 504 h): 22.6 % of dose | fm,CYP (CYP1A2; CYP1A2, share of total CYP-mediated metabolism in HLM): 1.1% | fumic (CYP1A2; CYP1A2 incubation): 0.86
